Source: ChEMBL document CHEMBL3244102, “Piperazinylpyrazines with central serotoninmimetic activity” (J Med Chem, 1978)
Values after ≈ are worked out from the molar mass of the structure shown. Active and inactive are the calls of the source. No cut-off for these calls is given here.

Tests used:
Mus musculus [1] = assay: Central serotoninmimetic activity in CF mouse assessed as induction of head twitches at 30 mg/kg, ip after 60 mins; type: functional, organism-based; set-up: dose 30 mg/kg
Mus musculus [2] = assay: Central serotoninmimetic activity in CF mouse assessed as induction of head twitches at 6 mg/kg, ip after 60 mins; type: functional, organism-based; set-up: dose 6 mg/kg
[3] = Peripheral serotoninmimetic activity in Charles River rat uterus assessed as uterine contraction measured as tension developed at 0.1 ug/ml; type: ADME, tissue-based
[4] = Peripheral serotoninmimetic activity in Charles River rat uterus assessed as uterine contraction; type: ADME, tissue-based
[5] = Peripheral serotoninmimetic activity in Charles River rat uterus assessed as uterine contraction measured as tension developed at 0.00050 ug/ml relative to methacholine; type: ADME, tissue-based
[6] = Peripheral serotoninmimetic activity in Charles River rat uterus assessed as uterine contraction measured as tension developed at 0.00075 ug/ml relative to methacholine; type: ADME, tissue-based
[7] = Peripheral serotoninmimetic activity in Charles River rat uterus assessed as uterine contraction measured as tension developed at 0.001 ug/ml relative to methacholine; type: ADME, tissue-based
[8] = Peripheral serotoninmimetic activity in Charles River rat uterus assessed as uterine contraction measured as tension developed at 0.005 ug/ml relative to methacholine; type: ADME, tissue-based
[9] = Peripheral serotoninmimetic activity in Charles River rat uterus assessed as uterine contraction measured as tension developed at 0.01 ug/ml relative to methacholine; type: ADME, tissue-based
[10] = Peripheral serotoninmimetic activity in Charles River rat uterus assessed as uterine contraction measured as tension developed at 0.01 ug/ml in presence of hydroxindasol; type: ADME, tissue-based
[11] = Peripheral serotoninmimetic activity in Charles River rat uterus assessed as uterine contraction measured as tension developed at 0.01 ug/ml in presence of methylsergide; type: ADME, tissue-based
[12] = Peripheral serotoninmimetic activity in Charles River rat uterus assessed as uterine contraction measured as tension developed at 0.005 ug/ml; type: ADME, tissue-based
[13] = Peripheral serotoninmimetic activity in Charles River rat uterus assessed as uterine contraction measured as tension developed at 0.00075 ug/ml; type: ADME, tissue-based
[14] = Peripheral serotoninmimetic activity in Charles River rat uterus assessed as uterine contraction measured as tension developed at 0.001 ug/ml; type: ADME, tissue-based
[15] = Peripheral serotoninmimetic activity in Charles River rat uterus assessed as uterine contraction measured as tension developed at 0.00050 ug/ml; type: ADME, tissue-based
[16] = Peripheral serotoninmimetic activity in Charles River rat uterus assessed as uterine contraction measured as tension developed at 0.01 ug/ml; type: ADME, tissue-based
[17] = Peripheral serotoninmimetic activity in Charles River rat uterus assessed as uterine contraction measured as tension developed at 0.05 ug/ml; type: ADME, tissue-based
[18] = Peripheral serotoninmimetic activity in Charles River rat uterus assessed as uterine contraction measured as tension developed at 1 ug/ml; type: ADME, tissue-based
[19] = Peripheral serotoninmimetic activity in Charles River rat uterus assessed as uterine contraction measured as tension developed at 0.5 ug/ml; type: ADME, tissue-based
[20] = Peripheral serotoninmimetic activity in Charles River rat uterus assessed as uterine contraction measured as tension developed at 5 ug/ml; type: ADME, tissue-based
[21] = Peripheral serotoninmimetic activity in Charles River rat uterus assessed as uterine contraction measured as tension developed at 10 ug/ml; type: ADME, tissue-based
[22] = Peripheral serotoninmimetic activity in Charles River rat uterus assessed as uterine contraction measured as tension developed at 20 ug/ml; type: ADME, tissue-based
[23] = Peripheral serotoninmimetic activity in Charles River rat uterus assessed as uterine contraction measured as tension developed at 1 ug/ml relative to methacholine; type: ADME, tissue-based
[24] = Peripheral serotoninmimetic activity in Charles River rat uterus assessed as uterine contraction measured as tension developed at 0.5 ug/ml relative to methacholine; type: ADME, tissue-based
[25] = Peripheral serotoninmimetic activity in Charles River rat uterus assessed as uterine contraction measured as tension developed at 5 ug/ml relative to methacholine; type: ADME, tissue-based
[26] = Peripheral serotoninmimetic activity in Charles River rat uterus assessed as uterine contraction measured as tension developed at 10 ug/ml relative to methacholine; type: ADME, tissue-based
[27] = Peripheral serotoninmimetic activity in Charles River rat uterus assessed as uterine contraction measured as tension developed at 10 ug/ml in presence of hydroxindasol; type: ADME, tissue-based
[28] = Peripheral serotoninmimetic activity in Charles River rat uterus assessed as uterine contraction measured as tension developed at 10 ug/ml in presence of methylsergide; type: ADME, tissue-based
[29] = Ratio of serotonin EC50 to compound EC50 for peripheral serotoninmimetic activity in Charles River rat uterus; type: ADME, tissue-based
Mus musculus [30] = assay: Central serotoninmimetic activity in CF mouse assessed as induction of head twitches at 10 mg/kg, ip after 30 to 60 mins in presence of methergoline; type: functional, organism-based; set-up: dose 10 mg/kg
Mus musculus [31] = assay: Central serotoninmimetic activity in CF mouse assessed as induction of head twitches at 10 mg/kg, ip after 30 to 60 mins in presence of cyproheptadine; type: functional, organism-based; set-up: dose 10 mg/kg
Mus musculus [32] = assay: Central serotoninmimetic activity in CF mouse assessed as induction of head twitches at 10 mg/kg, ip after 30 mins in presence of xylamidine; type: functional, organism-based; set-up: dose 10 mg/kg
Mus musculus [33] = assay: Central serotoninmimetic activity in CF mouse assessed as induction of head twitches at 60 mg/kg, ip after 30 mins in presence of xylamidine; type: functional, organism-based; set-up: dose 60 mg/kg

## COC(=O)c1nc(Cl)c(N2CCNCC2)nc1N
Mus musculus [1]
  Activity: inactive

## Clc1cncc(N2CCN(c3cncc(Cl)n3)CC2)n1
Mus musculus [2]
  Activity: inactive

## NCCc1c[nH]c2ccc(O)cc12 [SEROTONIN]
[3]
  Activity: 3.2 g
[4]
  EC50: 0.0083 µg/mL (≈ 0.0471 µM)
[5]
  Emax: 7%
[6]
  Emax: 37%
[7]
  Emax: 70%
[8]
  Emax: 80%
[9]
  Emax: 92%
[10]
  Activity: Non-toxic
[11]
  Activity: Non-toxic
[12]
  Activity: 2.67 g
[13]
  Activity: 1.23 g
[14]
  Activity: 2.32 g
[15]
  Activity: 0.22 g
[16]
  Activity: 3.08 g
[17]
  Activity: 3.18 g

## CS(=O)(=O)c1cncc(N2CCNCC2)n1
Mus musculus [2]
  Activity: inactive

## N#Cc1cncc(N2CCNCC2)n1
Mus musculus [2]
  Activity: inactive
Mus musculus [1]
  Activity: inactive

## c1ccc2nc(N3CCNCC3)ccc2c1
Mus musculus [2]
  Activity: inactive
Mus musculus [1]
  Activity: inactive

## CN(C)c1cncc(N2CCNCC2)n1
Mus musculus [2]
  Activity: inactive
Mus musculus [1]
  Activity: inactive

## c1ccc(-c2cnc(N3CCNCC3)cn2)cc1
Mus musculus [2]
  Activity: inactive
Mus musculus [1]
  Activity: inactive

## Clc1nccnc1N1CCNCC1
Mus musculus [2]
  Activity: inactive
Mus musculus [1]
  Activity: inactive

## Cc1cnc(C)c(N2CCNCC2)n1
Mus musculus [2]
  Activity: inactive

## Clc1cnc(N2CCNCC2)cn1
Mus musculus [2]
  Activity: inactive

## CN(C)CCCN1CCN(c2cncc(Cl)n2)CC1
Mus musculus [2]
  Activity: inactive
Mus musculus [1]
  Activity: inactive

## c1cnc(N2CCNCC2)cn1
Mus musculus [2]
  Activity: inactive

## Cc1cncc(N2CCNCC2)n1
Mus musculus [2]
  Activity: Active
Mus musculus [1]
  Activity: Active

## CC(=O)OC(C)C[N+](C)(C)C (stereo unspecified) [METHACHOLINE]
[18]
  Activity: 2.65 g

## Cl.Clc1cncc(N2CCNCC2)n1
[3]
  Activity: 0 g
[4]
  EC50: 2.411 µg/mL
[18]
  Activity: 0.4 g
[19]
  Activity: 0.27 g
[20]
  Activity: 2.12 g
[21]
  Activity: 2.28 g
[22]
  Activity: 2.42 g
[23]
  Emax: 15%
[24]
  Emax: 10%
[25]
  Emax: 80%
[26]
  Emax: 86%
[27]
  Activity: Non-toxic
[28]
  Activity: Non-toxic
[29]
  Ratio EC50: 300
Mus musculus [2]
  Activity: Active
Mus musculus [1]
  Activity: Active
Mus musculus [30]
  Activity: inactive
Mus musculus [31]
  Activity: inactive
Mus musculus [32]
  Activity: Active
Mus musculus [33]
  Activity: inactive

## Cc1nccnc1N1CCNCC1
Mus musculus [2]
  Activity: inactive
Mus musculus [1]
  Activity: inactive

## O=C1CN(c2cncc(Cl)n2)CCN1
Mus musculus [2]
  Activity: inactive
Mus musculus [1]
  Activity: inactive

## c1ccc(-c2cncc(N3CCNCC3)n2)cc1
Mus musculus [1]
  Activity: inactive
